1 compound from patent US3962238A, “Ethers of n-propanol amine” (Centre Europeen de Recherches Mauvernay "CERM", priority 1972, dated 1976) can be followed below.

Molecules are shown by their SMILES. Entries after “also recorded” stand apart in the source; their conditions may differ. Where a name gives a salt, the structure may show the parent alone.

Holding throughout (assay type): in vivo
Experiment [1] in a line: Cardiovascular activity on the chloralose-anaesthetised, artificially respirated dog (coronary sinus output, Pv O2, contraction amplitude, arterial pressure, rate of heart-beat). Conditions: for AMPLITUDE OF VENTRICULAR CONTRACTION / ARTERIAL PRESSURE / CORONARY OUTPUT / RATE OF HEART-BEAT / SINUSAL Pv O2: maximum percentage variation relative to pre-treatment values. Here is the method: The pharmacological activity of the compounds of the invention in the cardiovascular field was determined on the dog in the manner described below:
An incision is made in the right-hand chest wall of an animal, which has been anaesthetised with chloralose and given artificial respiration, to enable the blood from the venus sinus to be drawn off and the apparatus required to record the following parameters to be inserted in position:
a. Output of the coronary sinus;
b. Pv O2 of the blood from the coronary sinus; and
c. Amplitude of the contractions of the right ventricule.
At the same there were also measured:
d. Arterial pressure in a main carotid artery: and
e. The rate of heart-beat determined cardiotachometrically.
Table II which follows records the determinations made of the various parameters, the results being expressed as a maximum percentage variation relative to the pre-treatment values.

In experiment [2] the test system is β-adrenergic receptors. Kind of experiment: Action on the β-adrenergic receptors: inhibition of cardiac effects of stimulation of the right stellar ganglion in anaesthetised dogs. The settings on record: compound 5 mg/kg intravenous, average, dog. Here is the method: It then seemed interesting, using compound No. 1, to seek the existence of an action on the β-adrenergic receptors in the manner outlined below:
(§1) A stimulating electrode was placed in position on the right stellar ganglion of dogs anaesthetised as described above and for which there were recorded:
(§2) a. The arterial pressure,
(§3) b. Ventricular inotropism (the amplitude of contraction of the right ventricle), and
(§4) c. The rate of heart-beat.
(§5) The chest of the animals were not open and they were breathing freely.
The β-adrenergic receptors, both cardiac and vascular, were stimulated by electrical stimulation of the right stellar ganglion or by intravenous injection with isoprenaline (5 μg/kg). The measurements were taken both before and after administration of compound No. 1 by the intravenous route in a dose of 5 mg/kg bodyweight.
The following Table III gives the average percentage inhibition of the cardiovascular effects of isoprenaline and of the cardiac effects of the stimulation of the right stellar ganglion.

The subject of experiment [3] is β-adrenergic receptors. Nature of the experiment: Action on the β-adrenergic receptors: inhibition of cardiovascular effects of isoprenaline in anaesthetised dogs. The settings on record: dog, compound 5 mg/kg intravenous. Here is the method: as §1, §2, §3, §4, §5
The β-adrenergic receptors, both cardiac and vascular, were stimulated by electrical stimulation of the right stellar ganglion or by intravenous injection with isoprenaline (5 μg/kg).

Where [4] appears, read: isoprenaline 5 ug/kg intravenous, average.

`CC(C)COCC(CN1CCCC1)N(Cc1ccccc1)c1ccccc1` (centres unmarked) [Compound 1, 1-(3-isobutoxy-2-(phenylbenzyl)-amino)-propyl-pyrrolidino-hydrochloride]: in experiment [1] (2.5 mg/kg intravenous), the “AMPLITUDE OF VENTRICULAR CONTRACTION” value is given as -0.7%, the “ARTERIAL PRESSURE” value is recorded as -39.8%, the “CORONARY OUTPUT” value is recorded as “+51.2%” and the “RATE OF HEART-BEAT” value is recorded as -28.6%. Besides, the “SINUSAL Pv O2” value in experiment [1] (2.5 mg/kg intravenous) is given as “+119.2%”. In experiment [1] (5 mg/kg intravenous), the “AMPLITUDE OF VENTRICULAR CONTRACTION” value is -22.3%, the “ARTERIAL PRESSURE” value is -40.2%, the “CORONARY OUTPUT” value is listed as “+36.9%” and the “RATE OF HEART-BEAT” value was -31.8%. Further, the “SINUSAL Pv O2” value in experiment [1] (5 mg/kg intravenous) is recorded as “+120.8%”. Besides, in experiment [1] (intravenous), the “oxygen content of the venous cardiac blood (in words)” value is listed as “very considerable increase in the oxygen content of the venous cardiac blood”. Besides, in the experiment on β-adrenergic receptors [2], the “PERCENTAGE INHIBITION OF Positive inotropic effect” value is -21.3% and the “PERCENTAGE INHIBITION OF Rate of Heart-beat” value was -30%. In addition, the “effect on stimulation of the β-adrenergic receptors (in words)” value in the experiment with β-adrenergic receptors [3] (isoprenaline or right stellar ganglion stimulation, 5 mg/kg) was “partial inhibiting effect; also recorded: inhibiting effects with respect to the stimulation of the β-adrenergic receptors”. For the same compound, in the experiment on β-adrenergic receptors [3] (setting [4]), the “PERCENTAGE INHIBITION OF Hypotension” value was -54%, the “PERCENTAGE INHIBITION OF Positive inotropic effect” value was -46.5% and the “PERCENTAGE INHIBITION OF Rate of Heart-beat” value was -32.7%.
